Counter-ions that a name gives are not always drawn.
How the values were obtained:
[1] = target: T1, full-length proMMP9(1-707) (SEQ ID NO:1), activation by catalytic MMP3 (Homo sapiens, UniProt P14780, R574P); assay: proMMP9/MMP3 P126 Activation Assay; format: biochemical
T1 construct: made in house; host or cells: HEK293 (proMMP9, secreted); E. coli (MMP3)
Experimental: proMMP9/MMP3 P126 Activation Assay
The reaction volume was 50 μL. […] Reactivity of residual MMP3 towards P-126 substrate was minimal under these conditions.

[2] = target: T2, proMMP9(67-444;ΔFnII) (SEQ ID NO:5) (Homo sapiens, UniProt P14780, DEL216-390); assay: ThermoFluor binding assay with proMMP9(67-444;ΔFnII)
T2 construct: start methionine (N); made in house; host or cells: E. coli BL21(DE3) RIL
T2 sequence (P14780 with tags, fused parts or gaps DEL216-390): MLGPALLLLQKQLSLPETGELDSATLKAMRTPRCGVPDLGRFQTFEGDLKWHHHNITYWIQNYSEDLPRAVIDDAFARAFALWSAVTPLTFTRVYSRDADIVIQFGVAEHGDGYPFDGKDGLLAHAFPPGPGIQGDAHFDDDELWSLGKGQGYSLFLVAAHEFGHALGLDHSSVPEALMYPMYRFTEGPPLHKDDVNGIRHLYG
Experimental: (§1) The ThermoFluor® (TF) assay is a 384-well plate-based binding assay that measures thermal stability of proteins (Biomol Screen 2001, 6, 429-40; Biochemistry 2005, 44, 5258-66). The experiments were carried out using instruments available from Johnson & Johnson Pharmaceutical Research & Development, LLC. TF dye used in all experiments was […] (1,8-ANS) (Invitrogen: A-47).
(§2) Compounds were arranged in a pre-dispensed plate (Greiner Bio-one: 781280), wherein compounds were serially diluted in 100% DMSO across 11 columns within a series. Columns 12 and 24 were used as DMSO reference and contained no compound. For multiple compound concentration-response experiments, the compound aliquots ([…]) were robotically predispensed directly into black 384-well polypropylene PCR microplates (Abgene: TF-0384/k) using a Cartesian Hummingbird liquid handler (DigiLab, Holliston, Mass.). Following compound dispense, protein and dye solutions were added to achieve the final assay volume of 3 μL. The assay solutions were overlayed with 1 μL of silicone oil (Fluka, type DC 200: 85411) to prevent evaporation.
(§3) Assay plates were robotically loaded onto a thermostatically controlled PCR-type thermal block and then heated from 40 to 90° C. at a ramp-rate of 1° C./min for all experiments. Fluorescence was measured by continuous illumination with UV light (Hamamatsu LC6) supplied via fiber optics and filtered through a band-pass filter (380-400 nm; >60D cutoff). Fluorescence emission of the entire 384-well plate was detected by measuring light intensity using a CCD camera (Sensys, Roper Scientific) filtered to detect 500±25 nm, resulting in simultaneous and independent readings of all 384 wells. A single image with 20-sec exposure time was collected at each temperature, and the sum of the pixel intensity in a given area of the assay plate was recorded vs temperature and fit to standard equations to yield the Tm (J Biomol Screen 2001, 6, 429-40).
(§4) Thermodynamic parameters necessary for fitting compound binding for each proMMP were estimated by differential scanning calorimetry (DSC) and from ThermoFluor® data. The heat capacity of unfolding for each protein was estimated from the molecular weight and from ThermoFluor® dosing data.
ThermoFluor® with proMMP9(67-444;ΔFnII) (SEQ ID NO:5)
The protein sample preparations had to include a desalting buffer exchange step via a PD-10 gravity column (GE Healthcare). The desalting buffer exchange was performed prior to diluting the protein to the final assay concentration of 3.5 μM proMMP9(67-444;ΔFnII) (SEQ ID NO:5). The concentration of proMMP9(67-444;ΔFnII) (SEQ ID NO:5) was determined spectrophotometrically based on a calculated extinction coefficient of ε280=33900 M^−1cm^−1, a calculated molecular weight of 22.6 kDa, and calculated pI of 5.20. ThermoFluor® reference conditions were defined as follows: 80 μg/mL (3.5 μM) proMMP9(67-444;ΔFnII) (SEQ ID NO:5), 50 μM 1,8-ANS, pH 7.0 Buffer (50 mM HEPES pH 7.0, 100 mM NaCl, 0.001% Tween-20, 2.5 mM MgCl2, 300 μM CaCl2). The thermodynamic parameters for proMMP9(67-444;ΔFnII) (SEQ ID NO:5) are as follows: Tm (° C.)=63 (+/−0.1), ΔUH(Tm) (cal mol^−1)=105000(+/−5000), ΔUS(Tm) (cal mol^−1 K^−1)=[…], ΔUCp (cal mol^−1 K^−1)=2000.

[3] = target: T3, proMMP9(20-445;ΔFnII) (SEQ ID NO:6) (Homo sapiens, UniProt P14780, DEL216-390); assay: ThermoFluor binding assay with proMMP9(20-445;ΔFnII)
T3 construct: start methionine (N); made in house; host or cells: E. coli BL21(DE3) RIL
T3 sequence (P14780 with tags, fused parts or gaps DEL216-390): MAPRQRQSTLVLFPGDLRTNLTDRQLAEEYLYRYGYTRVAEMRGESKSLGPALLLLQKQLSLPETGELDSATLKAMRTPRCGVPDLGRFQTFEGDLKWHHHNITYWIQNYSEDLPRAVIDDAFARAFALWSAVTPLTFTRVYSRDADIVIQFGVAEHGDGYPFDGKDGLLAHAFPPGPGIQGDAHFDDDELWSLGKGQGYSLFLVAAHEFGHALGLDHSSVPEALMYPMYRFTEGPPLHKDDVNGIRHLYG
Experimental: as §1, §2, §3, §4
ThermoFluor® with proMMP9(20-445;ΔFnII) (SEQ ID NO:6)
The protein sample preparations included a desalting buffer exchange step via a PD-10 gravity column (GE Healthcare). The desalting buffer exchange was performed prior to diluting the protein to the final assay concentration of 2.8 μM proMMP9(20-445;ΔFnII) (SEQ ID NO:6). The concentration of proMMP9(20-445;ΔFnII) (SEQ ID NO:6) was determined spectrophotometrically based on a calculated extinction coefficient of ε280=39880 M^−1cm^−1, a calculated molecular weight of 28.2 kDa, and calculated pI of 5.5. ThermoFluor® reference conditions were define as follows: 80 μg/mL (2.8 μM) proMMP9(20-445;ΔFnII) (SEQ ID NO:6), 50 μM 1,8-ANS, pH 7.0 Buffer (50 mM HEPES pH 7.0, 100 mM NaCl, 0.001% Tween-20, 2.5 mM MgCl2, 300 μM CaCl2). The thermodynamic parameters for proMMP9(20-445;ΔFnII) (SEQ ID NO:6) are as follows: Tm (° C.)=72 (+/−0.1), ΔUH(Tm) (cal mol^−1)=160000(+/−5000), ΔUS(Tm) (cal mol^−1 K^−1)=434, ΔUCp (cal mol^−1 K^−1)=2400.

T1 sequence (P14780 20-707 R574P): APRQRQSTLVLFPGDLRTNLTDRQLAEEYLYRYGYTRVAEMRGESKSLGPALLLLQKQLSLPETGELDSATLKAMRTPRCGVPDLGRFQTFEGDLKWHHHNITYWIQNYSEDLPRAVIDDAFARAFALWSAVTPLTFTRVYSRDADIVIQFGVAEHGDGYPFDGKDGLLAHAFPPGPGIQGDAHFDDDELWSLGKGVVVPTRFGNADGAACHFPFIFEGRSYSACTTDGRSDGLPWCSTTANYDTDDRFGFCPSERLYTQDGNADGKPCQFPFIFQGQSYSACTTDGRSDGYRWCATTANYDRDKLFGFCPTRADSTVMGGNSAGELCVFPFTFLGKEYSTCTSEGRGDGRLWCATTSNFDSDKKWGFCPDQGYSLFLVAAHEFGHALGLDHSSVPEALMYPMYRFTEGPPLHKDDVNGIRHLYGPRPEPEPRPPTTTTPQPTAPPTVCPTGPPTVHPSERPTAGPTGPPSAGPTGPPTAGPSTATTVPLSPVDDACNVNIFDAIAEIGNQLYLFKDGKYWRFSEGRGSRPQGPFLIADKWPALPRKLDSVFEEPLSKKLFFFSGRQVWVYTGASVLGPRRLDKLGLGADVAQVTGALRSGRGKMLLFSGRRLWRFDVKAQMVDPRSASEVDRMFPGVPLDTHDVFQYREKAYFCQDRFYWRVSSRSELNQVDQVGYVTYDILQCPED

| Compound | IC50 [1] [nM] | Kd [2] [nM] | Kd [3] [nM] |
| --- | --- | --- | --- |
| CC(C)Oc1ccc(S(N)(=O)=O)cc1Nc1nc(-c2ccc(N3CCCN(C)CC3)nc2)cs1 [Example 40, 4-Isopropoxy-3-{4-[6-(4-methyl-[1,4]diazepan-1-yl)-pyridin-3-yl]-thiazol-2-ylamino}-benzenesulfonamideamide.TFA] | 87 | 330 | 44 |
| CC(C)Oc1ccc(C(N)=O)cc1Nc1nc(-c2ccnc(N3CCN(C)CC3)c2)cs1 [Example 28, 4-Isopropoxy-3-{4-[2-(4-methyl-piperazin-1-yl)-pyridin-4-yl]-thiazol-2-ylamino}-benzamide.TFA] | 210 | 990 | 82 |
| COC/C=C/c1ccc(-c2csc(Nc3cc(S(N)(=O)=O)ccc3OC(C)C)n2)cn1 [Example 93, (E)-4-Isopropoxy-3-((4-(6-(3-methoxyprop-1-en-1-yl)pyridin-3-yl)thiazol-2-yl)amino)benzenesulfonamide.TFA] | 520 | 3400 | 580 |
| CC(C)Oc1ccc(S(N)(=O)=O)cc1Nc1nc(-c2ccc(C(=O)N3CCN(C(C)C)CC3)nc2)cs1 [Example 51, 4-Isopropoxy-3-{4-[6-(4-isopropyl-piperazine-1-carbonyl)-pyridin-3-yl]-thiazol-2-ylamino}-benzenesulfonamide.TFA] | 1800 | 2700 | 1200 |
| CC(C)Oc1ccc(S(N)(=O)=O)cc1Nc1nc(-c2ccc(C(=O)N(C)CCN(C)C)nc2)cs1 [Example 53, 5-[2-(2-Isopropoxy-5-sulfamoyl-phenylamino)-thiazol-4-yl]-pyridine-2-carboxylic acid (2-dimethylamino-ethyl)-methyl-amide.TFA] | 970 | 2300 | 890 |
| CC(C)Oc1ccc(S(N)(=O)=O)cc1Nc1nc(-c2ccc(C(=O)NC3CCN(C)CC3)nc2)cs1 [Example 55, 5-[2-(2-Isopropoxy-5-sulfamoyl-phenylamino)-thiazol-4-yl]-pyridine-2-carboxylic acid (1-methyl-piperidin-4-yl)-amide.TFA] | 420 | 2600 | 810 |
| CCN1CCCN(C(=O)c2ccc(-c3csc(Nc4cc(S(N)(=O)=O)ccc4OC(C)C)n3)cn2)CC1 [Example 52, 3-{4-[6-(4-Ethyl-[1,4]diazepane-1-carbonyl)-pyridin-3-yl]-thiazol-2-ylamino}-4-isopropoxy-benzenesulfonamide.TFA] | 1000 | 2200 | 1200 |
| COc1ccc(C(N)=O)cc1Nc1nc(-c2ccc(N3CCN(C)CC3)nc2)cs1 [Example 32, 4-Methoxy-3-{4-[6-(4-methyl-piperazin-1-yl)-pyridin-3-yl]-thiazol-2-ylamino}-benzamide] | 840 | 2300 | 360 |
| CN1CCN(c2cc(-c3csc(Nc4cc(C(N)=O)ccc4OC(F)(F)F)n3)ccn2)CC1 [Example 36, 3-{4-[2-(4-Methyl-piperazin-1-yl)-pyridin-4-yl]-thiazol-2-ylamino}-4-trifluoromethoxy-benzamide.TFA] | 2300 | 7200 | 1300 |
| CC(C)Oc1ccc(S(N)(=O)=O)cc1Nc1nc(-c2ccnc(N3CCN(C)CC3)c2)cs1 [Example 35, 4-Isopropoxy-3-{4-[2-(4-methyl-piperazin-1-yl)-pyridin-4-yl]-thiazol-2-ylamino}-benzenesulfonamide.TFA] | 110 | 460 | 190 |
| CC(C)Oc1ccc(S(N)(=O)=O)cc1Nc1nc(-c2ccc(C(=O)N3CCN(C)CC3)nc2)cs1 [Example 46, 4-Isopropoxy-3-{4-[6-(4-methyl-piperazine-1-carbonyl)-pyridin-3-yl]-thiazol-2-ylamino}-benzenesulfonamide.TFA] | 1300 | 6600 | 1300 |
| CC(C)Oc1ccc(S(N)(=O)=O)cc1Nc1nc(-c2ccc(C(=O)N3CCN(C(=O)OC(C)(C)C)CC3)nc2)cs1 [Example 54, 4-{5-[2-(2-Isopropoxy-5-sulfamoyl-phenylamino)-thiazol-4-yl]-pyridine-2-carbonyl}-piperazine-1-carboxylic acid tert-butyl ester.TFA] | 3700 | 2500 | 960 |
| COc1cc(C(N)=O)ccc1Nc1nc(-c2cccnc2)cs1 [Example 6, 3-Methoxy-4-(4-pyridin-3-yl-thiazol-2-ylamino)-benzamide] | 11000 | 11000 | 70000 |
| CC(C)Oc1ccc(S(N)(=O)=O)cc1Nc1nc(-c2ccc(NCCN(C)C)nc2)cs1 [Example 42, 3-(4-{6-[(2-Dimethylamino-ethyl)-amino]-pyridin-3-yl}-thiazol-2-ylamino)-4-isopropoxy-benzenesulfonamide.TFA] | 150 | 680 | 130 |
| CC(C)Oc1ccc(S(N)(=O)=O)cc1Nc1nc(-c2ccc(C(=O)NCCN(C)C)nc2)cs1 [Example 50, 5-[2-(2-Isopropoxy-5-sulfamoyl-phenylamino)-thiazol-4-yl]-pyridine-2-carboxylic acid (2-dimethylamino-ethyl)-amide.TFA] | 160 | 130 | 90 |
| CC(C)Oc1ccc(S(N)(=O)=O)cc1Nc1nc(-c2ccc(C(=O)N3CCC(N(C)C)CC3)nc2)cs1 [Example 48, 3-{4-[6-(4-Dimethylamino-piperidine-1-carbonyl)-pyridin-3-yl]-thiazol-2-ylamino}-4-isopropoxy-benzenesulfonamide.TFA] | 1100 | 4100 | 2300 |

— patent publication US20120129843A1, “PYRIDYL-THIAZOLYL INHIBITORS OF PRO-MATRIX METALLOPROTEINASE ACTIVATION” (priority 2010, published 2012)
